Calls of active or inactive are those of the source. No cut-off for these calls is given here.
Biological target: T1, Glycogen phosphorylase, muscle form (Oryctolagus cuniculus) (UniProt P00489)
T1 sequence (whole entry): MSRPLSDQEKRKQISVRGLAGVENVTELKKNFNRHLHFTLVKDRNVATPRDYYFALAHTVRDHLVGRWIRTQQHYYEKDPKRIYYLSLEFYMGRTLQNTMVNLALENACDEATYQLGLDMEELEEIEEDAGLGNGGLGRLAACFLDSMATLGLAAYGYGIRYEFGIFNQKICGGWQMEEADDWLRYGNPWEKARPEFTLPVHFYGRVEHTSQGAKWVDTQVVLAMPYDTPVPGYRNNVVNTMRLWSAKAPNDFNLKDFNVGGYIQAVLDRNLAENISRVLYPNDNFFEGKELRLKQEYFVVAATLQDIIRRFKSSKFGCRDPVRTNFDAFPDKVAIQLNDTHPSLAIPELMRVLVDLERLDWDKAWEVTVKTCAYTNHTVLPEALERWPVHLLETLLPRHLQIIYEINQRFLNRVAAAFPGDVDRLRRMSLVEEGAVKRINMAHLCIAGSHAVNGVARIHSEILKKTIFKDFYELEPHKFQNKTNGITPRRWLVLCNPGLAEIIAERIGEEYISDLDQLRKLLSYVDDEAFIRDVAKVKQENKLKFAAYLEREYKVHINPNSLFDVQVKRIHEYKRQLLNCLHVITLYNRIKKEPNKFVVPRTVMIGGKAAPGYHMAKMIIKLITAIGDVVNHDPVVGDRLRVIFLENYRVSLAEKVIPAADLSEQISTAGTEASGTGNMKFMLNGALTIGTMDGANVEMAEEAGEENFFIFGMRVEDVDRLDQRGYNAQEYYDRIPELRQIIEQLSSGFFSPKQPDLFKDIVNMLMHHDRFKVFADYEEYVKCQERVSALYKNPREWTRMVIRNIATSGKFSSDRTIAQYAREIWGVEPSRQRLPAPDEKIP
Experiment: Inhibition of rabbit skeletal muscle glycogen phosphorylase bat 625 uM by Lineweaver-Burk plot method

Row | SMILES | inhibition
1 | O=C(N[C@@H]1O[C@H](CO)[C@@H](O)[C@H](O)[C@H]1O)c1cn(-c2ccc3ccccc3c2)nn1 | inactive
2 | O=C(N[C@@H]1O[C@H](CO)[C@@H](O)[C@H](O)[C@H]1O)c1nc(-c2ccc3ccccc3c2)no1 | inactive
3 | O=C(N[C@@H]1O[C@H](CO)[C@@H](O)[C@H](O)[C@H]1O)c1cc(-c2ccc3ccccc3c2)no1 | inactive
4 | O=C(N[C@@H]1O[C@H](CO)[C@@H](O)[C@H](O)[C@H]1O)c1noc(-c2ccc3ccccc3c2)n1 | inactive

Biological target: T2, Glycogen phosphorylase, muscle form (Oryctolagus cuniculus, UniProt P00489)
T2 sequence (P00489 whole entry): T1 sequence (whole entry)
Description: Inhibition of rabbit skeletal muscle glycogen phosphorylase b by Lineweaver-Burk plot method

Row | SMILES | Ki [µM]
5 | O=C(N[C@@H]1O[C@H](CO)[C@@H](O)[C@H](O)[C@H]1O)c1nnc(-c2ccc3ccccc3c2)o1 | 30
6 | O=C(N[C@@H]1O[C@H](CO)[C@@H](O)[C@H](O)[C@H]1O)c1cc(-c2ccccc2)no1 | 172
7 | O=C(N[C@@H]1O[C@H](CO)[C@@H](O)[C@H](O)[C@H]1O)c1nc(-c2ccccc2)no1 | 104
8 | O=C(N[C@@H]1O[C@H](CO)[C@@H](O)[C@H](O)[C@H]1O)c1nc(-c2cccc3ccccc23)no1 | 145
9 | O=C(N[C@@H]1O[C@H](CO)[C@@H](O)[C@H](O)[C@H]1O)c1nnc(-c2ccccc2)o1 | 545
10 | O=C(N[C@@H]1O[C@H](CO)[C@@H](O)[C@H](O)[C@H]1O)c1noc(-c2ccccc2)n1 | 136
11 | O=C(N[C@@H]1O[C@H](CO)[C@@H](O)[C@H](O)[C@H]1O)c1noc(-c2cccc3ccccc23)n1 | 33
12 | O=C(N[C@@H]1O[C@H](CO)[C@@H](O)[C@H](O)[C@H]1O)c1nnc(-c2cccc3ccccc23)o1 | 172
13 | O=C(N[C@@H]1O[C@H](CO)[C@@H](O)[C@H](O)[C@H]1O)c1cn(-c2ccccc2)nn1 | 75

Source: ChEMBL document CHEMBL2417405, “Synthesis, enzyme kinetics and computational evaluation of N-(β-D-glucopyranosyl) oxadiazolecarboxamides as glycogen phosphorylase inhibitors” (Bioorg Med Chem, 2013)
